Results: article PMC8271486, “Assessment of Antidiabetic Activity of the Shikonin by Allosteric Inhibition of Protein-Tyrosine Phosphatase 1B (PTP1B) Using State of Art: An In Silico and In Vitro Tactics” (Molecules, 2021)

Target: T1, Protein tyrosine phosphatase 1B (PTP1B) (Homo sapiens, UniProt P18031)
T1 construct: gene PTPN1
T1 sequence (P18031 1-435): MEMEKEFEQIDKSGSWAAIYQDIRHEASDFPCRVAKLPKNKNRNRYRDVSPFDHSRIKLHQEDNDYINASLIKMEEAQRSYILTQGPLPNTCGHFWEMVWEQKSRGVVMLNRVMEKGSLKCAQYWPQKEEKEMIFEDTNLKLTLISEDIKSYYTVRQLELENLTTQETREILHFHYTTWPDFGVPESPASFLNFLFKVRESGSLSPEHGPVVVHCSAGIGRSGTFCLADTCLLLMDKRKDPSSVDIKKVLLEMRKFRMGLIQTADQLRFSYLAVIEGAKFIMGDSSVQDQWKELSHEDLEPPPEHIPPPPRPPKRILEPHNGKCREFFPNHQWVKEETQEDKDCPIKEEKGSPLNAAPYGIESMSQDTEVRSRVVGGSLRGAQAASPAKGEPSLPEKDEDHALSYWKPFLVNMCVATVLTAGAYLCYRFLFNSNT
Experiment: pNPP hydrolysis assay ([…] nm) with human recombinant PTP1B; Dixon and Lineweaver-Burk kinetics
Type: biochemical

Structure (SMILES): CC(C)=CC[C@@H](O)C1=CC(=O)c2c(O)ccc(O)c2C1=O [Shikonin, 5,8-dihydroxy-2-[(1R)-1-hydroxy-4-methylpent-3-enyl] naphthalene-1,4-dione]
- IC50: 15.5 µM
